# Key:
# [1] = humans; cited from earlier work
# [2] = test system: RAW 264.7; settings: RAW 264.7, through down-regulating the activation of Akt; cited from earlier work
# [3] = test system: isolated rat arterioles; settings: compared to basal tone; cited from earlier work
# [4] = test system: glycine cleavage system; settings: cited from earlier work
# [5] = test system: 13886 mRNA; test: 13886 mRNA in aortas of treated rats (TaqMan); type: in vivo; settings: seven days, vs vehicle treated controls, p<0.005 ANOVA
# Text: (§1) This example describes the TaqMan™ procedure. The Taqman™ procedure is a quantitative, reverse transcription PCR-based approach for detecting mRNA. The RT-PCR reaction exploits the 5′ nuclease activity of AmpliTaq Gold™ DNA Polymerase to cleave a TaqMan™ probe during PCR. Briefly, cDNA was generated from the samples of interest, e.g., heart, kidney, liver, skeletal muscle, and various vessels, and used as the starting material for PCR amplification. In addition to the 5′ and 3′ gene-specific primers, a gene-specific oligonucleotide probe (complementary to the region being amplified) was included in the reaction (i.e., the Taqman™ probe). […]
# (§2) During the PCR reaction, cleavage of the probe separates the reporter dye and the quencher dye, resulting in increased fluorescence of the reporter. Accumulation of PCR products is detected directly by monitoring the increase in fluorescence of the reporter dye. When the probe is intact, the proximity of the reporter dye to the quencher dye results in suppression of the reporter fluorescence. […]
# [6] = test system: 32345 mRNA; test: 32345 mRNA in HUVECs (TaqMan); type: cell-based, human
# Text: as §1, §2
# [7] = test system: 6169 mRNA; test: 6169 mRNA in human primary hepatocytes (TaqMan); type: cell-based
# Text: as §1, §2
# [8] = target: 1722 (Protein Kinase C mu or PKD) (Homo sapiens, UniProt Q15139); settings: Biochem Pharmacol. 2001; cited from earlier work
# [9] = test system: 2569654 mRNA; test: 2569654 mRNA in marmoset models (TaqMan); type: in vivo
# Text: (§3) This example describes the TaqMan™ procedure. The Taqman™ procedure is a quantitative, reverse transcription PCR-based approach for detecting mRNA. The RT-PCR reaction exploits the 5′ nuclease activity of AmpliTaq Gold™ DNA Polymerase to cleave a TaqMan™ probe during PCR. Briefly, cDNA was generated from the samples of interest, e.g., heart, kidney, liver, skeletal muscle, and various vessels, and used as the starting material for PCR amplification. In addition to the 5′ and 3′ gene-specific primers, a gene-specific oligonucleotide probe (complementary to the region being amplified) was included in the reaction (i.e., the Taqman™ probe). The TaqMan™ probe includes the oligonucleotide with a fluorescent reporter dye covalently linked to the 5′ end of the probe (such as FAM (6-carboxyfluorescein), TET (6-carboxy4,7,2′,7′-tetrachlorofluorescein), JOE (6-carboxy-4,5-dichloro-2,7-dimethoxyfluorescein), or VIC) and a quencher dye (TAMRA (6-carboxy-N,N,N′,N′-tetramethylrhodamine) at the 3′ end of the probe.
# (§4) During the PCR reaction, cleavage of the probe separates the reporter dye and the quencher dye, resulting in increased fluorescence of the reporter. Accumulation of PCR products is detected directly by monitoring the increase in fluorescence of the reporter dye. When the probe is intact, the proximity of the reporter dye to the quencher dye results in suppression of the reporter fluorescence. During PCR, if the target of interest is present, the probe specifically anneals between the forward and reverse primer sites. The 5′-3′ nucleolytic activity of the AmpliTaq™ Gold DNA Polymerase cleaves the probe between the reporter and the quencher only if the probe hybridizes to the target. The probe fragments are then displaced from the target, and polymerization of the strand continues. The 3′ end of the probe is blocked to prevent extension of the probe during PCR. […] RNA was prepared using the trizol method and treated with DNase to remove contaminating genomic DNA. cDNA was synthesized using standard techniques.
# [10] = test system: 3533 mRNA; test: 3533 mRNA regulation by lipid lowering drugs (TaqMan)
# Text: as §3, §4
# [11] = humans, betaine supplemented diets vs control group; cited from earlier work
# [12] = test system: 1510 mRNA; test: 1510 mRNA in aortic arches of ApoE knockout mice (TaqMan); type: in vivo; settings: relative to abdominal aorta, 12 weeks
# Text: as §1, §2
# [13] = test system: 966 mRNA; test: 966 mRNA in aortic arches of mice given captopril (TaqMan); type: in vivo; settings: given for 6 or 12 weeks
# Text: as §1, §2
# Chain of 1722 (Protein Kinase C mu or PKD) (Q15139 whole entry): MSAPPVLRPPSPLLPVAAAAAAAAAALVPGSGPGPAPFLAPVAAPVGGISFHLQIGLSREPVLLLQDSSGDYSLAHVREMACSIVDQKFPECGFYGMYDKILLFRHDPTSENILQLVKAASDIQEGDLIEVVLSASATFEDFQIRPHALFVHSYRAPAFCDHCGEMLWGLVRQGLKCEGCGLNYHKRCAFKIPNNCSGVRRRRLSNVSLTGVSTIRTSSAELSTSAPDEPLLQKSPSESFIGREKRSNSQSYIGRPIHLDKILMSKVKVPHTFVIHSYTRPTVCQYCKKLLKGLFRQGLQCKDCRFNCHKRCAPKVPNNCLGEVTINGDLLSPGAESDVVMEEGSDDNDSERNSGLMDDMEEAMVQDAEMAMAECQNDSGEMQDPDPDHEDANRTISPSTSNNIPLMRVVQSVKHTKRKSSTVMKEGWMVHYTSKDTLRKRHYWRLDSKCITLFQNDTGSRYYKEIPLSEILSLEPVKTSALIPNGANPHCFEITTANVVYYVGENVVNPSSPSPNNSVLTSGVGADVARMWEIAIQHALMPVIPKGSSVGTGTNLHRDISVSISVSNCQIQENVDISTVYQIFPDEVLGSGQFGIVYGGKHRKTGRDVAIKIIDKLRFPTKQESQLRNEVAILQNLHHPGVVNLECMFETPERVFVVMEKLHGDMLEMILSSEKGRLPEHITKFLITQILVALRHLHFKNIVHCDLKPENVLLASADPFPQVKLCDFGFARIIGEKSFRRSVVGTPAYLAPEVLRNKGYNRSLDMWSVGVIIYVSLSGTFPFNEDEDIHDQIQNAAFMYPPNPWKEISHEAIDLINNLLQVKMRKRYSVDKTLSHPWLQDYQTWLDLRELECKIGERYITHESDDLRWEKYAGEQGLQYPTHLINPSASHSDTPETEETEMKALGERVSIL
compound,measurement,setting,value
CC1=C(/C=C/C(C)=C\C=C\C(C)=C\C(=O)O)C(C)(C)CCC1 [9-cis retinoic acid],lipid profile,[1],"increase total cholesterol, ILDL-cholesterol, apoB and triglyceride levels and decrease HDL-cholesterol"
CC1=C(/C=C/C(C)=C/C=C/C(C)=C\C(=O)O)C(C)(C)CCC1 [13-cis retinoic acid],lipid profile,[1],"increase total cholesterol, ILDL-cholesterol, apoB and triglyceride levels and decrease HDL-cholesterol"
CCCCCCCCCCCCC/C=C/[C@@H](O)[C@H](CO)NC(C)=O [C(2)-ceramide],LPS-induced NO production,[2],inhibit
COc1cc2c(c(OC)c1OC)-c1ccc(OC)c(=O)cc1[C@@H](NC(C)=O)CC2 [Colchicine],vasoconstriction,[3],33.9%
NCCS [Cysteamine],inhibition of the glycine cleavage system,[4],potent inhibitor
COC(=O)[C@@H](N)CCCNC(=N)N[N+](=O)[O-] [L-NAME],expression of 13886 mRNA,[5],significantly down-regulated
CC[C@H](C)C(=O)O[C@H]1CCC=C2C=C[C@H](C)[C@H](CC[C@@H]3C[C@@H](O)CC(=O)O3)[C@H]21 [Mevastatin],32345 mRNA expression,[6],upregulated
same,6169 mRNA upregulated,[7],2.4 fold
Oc1ccc(C=Cc2cc(O)cc(O)c2)cc1 [Resveratrol],autophosphorylation of 1722,[8],inhibit
N[C@@H](Cc1cc(I)c(Oc2ccc(O)c(I)c2)c(I)c1)C(=O)O [T3],2569654 mRNA expression,[9],upregulated
same,3533 mRNA expression,[10],downregulated
"C[N+](C)(C)CC(=O)[O-] [betaine, trimethylglycine]",plasma homocysteine concentration,[11],decrease
same,total and LDL cholesterol concentration,[11],small but significant increase
C[C@H](CS)C(=O)N1CCC[C@H]1C(=O)O [captopril],elevated expression of 1510 mRNA in aortic arches of ApoE knockout mice,[12],blocked
same,upregulation of 966 mRNA in mice aortic arches,[13],inhibited

# Reference: US20050037946A1, “Methods and compositions for treating cardiovascular disease using 1722, 10280, 59917, 85553, 10653, 9235, 21668, 17794, 2210, 6169, 10102, 21061, 17662, 1468, 12282, 6350, 9035, 1820, 23652, 7301, 8925, 8701, 3533, 9462, 9123, 12788, 17729, 65552, 1261, 21476, 33770, 9380, 2569654, 33556, 53656, …” (Millennium Pharmaceuticals, Inc., priority 2003, published 2005)
